This is an account of results in patent US8703197B2, “Branched polyamines for delivery of biologically active materials” (International Business Machines Corporation, priority 2012, dated 2014).

The data set relates to HeLa cells. Kind of data set: MTT cytotoxicity of polymer/gene complexes in HeLa cells. Type of data set: cell-based, human. As to the method:
The cytotoxicity of the modified bPEI-25/gene complexes and modified bPEI-25/siRNA complexes was studied using the standard MTT assay protocol on HepG2, HeLa and SK-OV-3 cells. The GFP plasmid was used for complex formation and treatment of HepG2 and HeLa cells, while the luciferase plasmid was used for complex formation and treatment of SK-OV-3 cells.
HepG2, HeLa and SK-OV-3 cells were seeded onto 96-well plates at densities of 10000 cells, 5000 and 16000 cells per well, respectively, and allowed to grow to 60% to 70% confluency before treatment. Polymer/gene or polymer/siRNA complexes at various N/P ratios were prepared in water as described above. The cells in each well were then incubated with growth medium comprising 10 microliters of polymer/nucleic acid complexes and 100 microliters of fresh medium for 4 hours at 37° C. Following incubation, the medium was replaced with fresh growth medium and incubated further for 68 hours. […] A 100 microliter aliquot from each well was then transferred to a new 96-well plate for determination of absorbance using a microplate spectrophotometer at wavelengths of 550 nm and 690 nm. Relative cell viability was expressed as [A550−A690)sample/(A550−A690)control]×100%. Data were expressed as mean±standard deviations of at least eight replicates per N/P ratio.

In the case of Branched Polyethylenimine [bPEI-25], the “Maximum N/P ratio for Cell Viability ≧80%, HeLa Max N/P” value is listed as 20.
